Results from PubChem BioAssay AID2060615 (Molecular Pharmacology Branch, DTP, NCI, 2025).

System: 496974-208-R-J2-PDC complex spheroids, growth % test/control
Assay: Anticancer human tumor 496974-208-R-J2-PDC patient-derived pancreatic carcinoma cell line growth inhibition [CLK]
Details: for IC50: curve of first compound; for viability, T/C: stronger effect = lower value
Text: A high-throughput screen of multi-cell type tumor spheroids was designed to identify active combinations of […] and targeted small molecules. Complex spheroids include a stromal component modeled by human endothelial cells (HUVEC) and fibroblasts modeled by human mesenchymal stem cells (MSCs). The concentration ranges selected for each drug and investigational agent were based upon clinically achievable concentrations if the clinical Cmax of the agent was known.
Compounds. The drugs and investigational agents: cirtuvivint (SM08502; NSC835563), CC-671 (NSC850746), vemurafenib (NSC761431), tapotoclax (NSC804041), sotorasib (NSC818433), adagrasib (NSC831453), MRTX-1133 (NSC836407), BAY2416964 (NSC825713), copanlisib (NSC816437), inavolisib (NSC800729), abemaciclib (NSC768073), osimertinib (NSC779217), entinostat (NSC756642), eltanexor (KPT-8602, NSC794443), venetoclax (NSC766270), ceralasertib (NSC777638), bortezomib (NSC756655), olaparib (NSC753686), talazoparib (NSC767125), alisertib (NSC759677), peposertib (NSC802822), gemcitabine (NSC613327), 5-fluorouracil (NSC19893), SN-38 (NSC673596), oxaliplatin (NSC266046), paclitaxel (NSC125973), and doxorubicin (NSC123127), were obtained from the National Cancer Institute (NCI) Developmental Therapeutics Program Chemical Repository. The FDA-approved anticancer drug set is available from the Developmental Therapeutics Program at https://dtp.cancer.gov/organization/dscb/obtaining/available plates.htm. […] The stock solutions were prepared in dimethyl sulfoxide (DMSO, Sigma-Aldrich, St. Louis, MO, cat. D2650), except for the platinum complexes which were prepared in saline (Quality Biological, Gaithersburg, MD, cat. 114-055-101), at 800-fold the tested concentration and stored at -70 degrees C prior to their use. All drugs and investigational agents were tested over a range starting from a high concentration at or near the clinical Cmax and decreasing in half-log increments. If the clinical Cmax for an agent had not been determined, the highest concentration tested was 10 microM.
Cell Culture. All cells were maintained in an incubator at 37 degrees C and 5% CO2 with 95% humidity. The PDC lines were cultured according to standard operating procedures established by the NCI PDMR. Briefly, all PDCs were thawed and cultured in Matrigel-coated flasks prepared with a working solution of 1X Ham's F-12 nutrient mix, without supplementation (Invitrogen, Waltham, MA, cat. 11765054), 100 U/mL penicillin-streptomycin (Invitrogen, cat. 15140122), and 2.5% Matrigel (Corning Inc., Corning, NY, cat. 354248) for the first three passages. The 947758-054-R-J2-PDC line was cultured in 6B/Colon 1A media, which includes advanced DMEM/F-12 (Thermo Fisher Scientific, cat. 12634028), 10 mM HEPES (Thermo Fisher Scientific, cat. 15630080), 1X GlutaMAX supplement (Thermo Fisher Scientific, cat. 35050061), 0.1 mg/mL primocin (InvivoGen, cat. ant-pm-2), 10% defined fetal bovine serum, heat inactivated (HyClone Laboratories Inc., cat. SH30070.03HI), 1.25 mM N-Acetyl-L-cysteine (Sigma-Aldrich, cat. A9165), 10 mM nicotinamide (Sigma-Aldrich, cat. N0636), 1X B-27 supplement (Thermo Fisher Scientific, cat. 17504044), 1X N-2 supplement (Thermo Fisher Scientific, cat. 17502048), and 10 microM Y-27632 dihydrochloride (Tocris Bioscience, cat. 1254). The 876862-298-R-J1-PDC was cultured in 6E media, which includes all 6B/Colon 1A media components plus 50% L-WRN conditioned media (ATCC, cat. CRL-3276), 50 ng/mL recombinant human EGF recombinant protein (hEGF; Thermo Fisher Scientific, cat. PHG0311), 10 ng/mL recombinant human fibroblast growth factor 10 (hGFG-10; PeproTech, cat. 100-26), 1 ng/mL recombinant human fibroblast growth factor 2 (hFGF-2; PeproTech, cat. 100-18B), and 1 µM prostaglandin E2 (PGE2; Tocris, cat. 2296). The 227483-062-R1-J1-PDC line was cultured in Panc media, containing all 6E components except hFGF-2, with the addition of 500 nM SB-431542 (Selleckchem, cat. S1067) and 10 nM gastrin (Tocris, cat. 3006). […]

[1] = second compound 0.0316 µM, first compound 0.0316 µM
[2] = second compound 0.0316 µM, first compound 0.1 µM
[3] = second compound 0.0316 µM, first compound 0.316 µM
[4] = second compound 0.0316 µM, first compound 1 µM
[5] = second compound 0.0316 µM, first compound 3.16 µM
[6] = second compound 0.0316 µM, first compound 10 µM
[7] = second compound 0.1 µM, first compound 0.0316 µM
[8] = second compound 0.1 µM, first compound 0.1 µM
[9] = second compound 0.1 µM, first compound 0.316 µM
[10] = second compound 0.1 µM, first compound 1 µM
[11] = second compound 0.1 µM, first compound 3.16 µM
[12] = second compound 0.1 µM, first compound 10 µM
[13] = second compound 0.316 µM, first compound 0.0316 µM
[14] = second compound 0.316 µM, first compound 0.1 µM
[15] = second compound 0.316 µM, first compound 0.316 µM
[16] = second compound 0.316 µM, first compound 1 µM
[17] = second compound 0.316 µM, first compound 3.16 µM
[18] = second compound 0.316 µM, first compound 10 µM
[19] = second compound 1 µM, first compound 0.0316 µM
[20] = second compound 1 µM, first compound 0.1 µM
[21] = second compound 1 µM, first compound 0.316 µM
[22] = second compound 1 µM, first compound 1 µM
[23] = second compound 1 µM, first compound 3.16 µM
[24] = second compound 1 µM, first compound 10 µM
[25] = second compound 3.16 µM, first compound 0.0316 µM
[26] = second compound 3.16 µM, first compound 0.1 µM
[27] = second compound 3.16 µM, first compound 0.316 µM
[28] = second compound 3.16 µM, first compound 1 µM
[29] = second compound 3.16 µM, first compound 3.16 µM
[30] = second compound 3.16 µM, first compound 10 µM
[31] = second compound 10 µM, first compound 0.0316 µM
[32] = second compound 10 µM, first compound 0.1 µM
[33] = second compound 10 µM, first compound 0.316 µM
[34] = second compound 10 µM, first compound 1 µM
[35] = second compound 10 µM, first compound 3.16 µM
[36] = second compound 10 µM, first compound 10 µM
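Also: spheroids exposed to the drugs for 7 days before readout.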
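For viability, T/C in this document: 100% = DMSO vehicle control wells.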

With `CCCS(=O)(=O)Nc1ccc(F)c(C(=O)c2c[nH]c3ncc(-c4ccc(Cl)cc4)cc23)c1F` + CN1CCN(c2cc(C(=O)Nc3cc4cc(-c5cnn(C)c5)ccc4cn3)ccn2)CC1 as the compound, how does the IC50 (second compound 0.0316 µM) read?
The IC50 was 8.72 µM.

And the IC50 (second compound 0.1 µM)?
The IC50 was 8.61 µM.

And the IC50 (second compound 0.316 µM)?
The IC50 was under 0.0316 µM.

What about the IC50 (second compound 1 µM) of the same compound?
The IC50 was under 0.0316 µM.

What about the IC50 (second compound 3.16 µM) of the same compound?
Its IC50 is under 0.0316 µM.

And the IC50 (second compound 10 µM)?
The IC50 was under 0.0316 µM.

And the viability, T/C [1]?
The viability, T/C was 100%.

What about the viability, T/C [2] of the same compound?
Its viability, T/C is 101%.

And the viability, T/C [3]?
Its viability, T/C is 104%.

What about the viability, T/C [4] of the same compound?
Its viability, T/C is 112%.

What about the viability, T/C [5] of the same compound?
The viability, T/C was 103%.

What about the viability, T/C [6] of the same compound?
The viability, T/C was 42.9%.

What about the viability, T/C [7] of the same compound?
Its viability, T/C is 79.8%.

What about the viability, T/C [8] of the same compound?
The viability, T/C was 92.3%.

What about the viability, T/C [9] of the same compound?
Its viability, T/C is 95.8%.

And the viability, T/C [10]?
The viability, T/C was 95.3%.

What about the viability, T/C [11] of the same compound?
Its viability, T/C is 82.8%.

And the viability, T/C [12]?
Its viability, T/C is 44.8%.

What about the viability, T/C [13] of the same compound?
The viability, T/C was 7.31%.

And the viability, T/C [14]?
The viability, T/C was 7.89%.

What about the viability, T/C [15] of the same compound?
Its viability, T/C is 8.26%.

And the viability, T/C [16]?
The viability, T/C was 12.3%.

What about the viability, T/C [17] of the same compound?
The viability, T/C was 13.7%.

What about the viability, T/C [18] of the same compound?
The viability, T/C was 12.7%.

What about the viability, T/C [19] of the same compound?
The viability, T/C was 0.4%.

And the viability, T/C [20]?
Its viability, T/C is 1.65%.

What about the viability, T/C [21] of the same compound?
The viability, T/C was 0.49%.

And the viability, T/C [22]?
The viability, T/C was 0.54%.

What about the viability, T/C [23] of the same compound?
Its viability, T/C is 0.67%.

What about the viability, T/C [24] of the same compound?
The viability, T/C was 1.12%.

And the viability, T/C [25]?
Its viability, T/C is 0.36%.

What about the viability, T/C [26] of the same compound?
Its viability, T/C is 0.59%.

What about the viability, T/C [27] of the same compound?
Its viability, T/C is 1.11%.

And the viability, T/C [28]?
The viability, T/C was 0.45%.

And the viability, T/C [29]?
Its viability, T/C is 1.82%.

And the viability, T/C [30]?
The viability, T/C was 1.33%.

And the viability, T/C [31]?
Its viability, T/C is 0.23%.

What about the viability, T/C [32] of the same compound?
Its viability, T/C is 0.7%.

And the viability, T/C [33]?
The viability, T/C was 0.31%.

And the viability, T/C [34]?
Its viability, T/C is 1.08%.

What about the viability, T/C [35] of the same compound?
Its viability, T/C is 1.52%.

What about the viability, T/C [36] of the same compound?
The viability, T/C was 0.99%.

For `COC1C=CCC(C)C(C)S(=O)(=O)NC(=O)c2ccc3c(c2)N(CC2CCC21)CC1(CCCc2cc(Cl)ccc21)CO3` (centres undefined) + CN1CCN(c2cc(C(=O)Nc3cc4cc(-c5cnn(C)c5)ccc4cn3)ccn2)CC1, which IC50 (second compound 0.0316 µM) is on record?
The IC50 was 9.9 µM.

What about the IC50 (second compound 0.1 µM) of the same compound?
The IC50 was 6.73 µM.

And the IC50 (second compound 0.316 µM)?
The IC50 was under 0.0316 µM.

And the IC50 (second compound 1 µM)?
Its IC50 is under 0.0316 µM.

And the IC50 (second compound 3.16 µM)?
The IC50 was under 0.0316 µM.

And the IC50 (second compound 10 µM)?
The IC50 was under 0.0316 µM.

And the viability, T/C [1]?
The viability, T/C was 93.4%.

What about the viability, T/C [2] of the same compound?
Its viability, T/C is 87.3%.

What about the viability, T/C [3] of the same compound?
Its viability, T/C is 86.7%.

And the viability, T/C [4]?
The viability, T/C was 76.2%.

What about the viability, T/C [5] of the same compound?
Its viability, T/C is 76.1%.

What about the viability, T/C [6] of the same compound?
The viability, T/C was 48.3%.

What about the viability, T/C [7] of the same compound?
The viability, T/C was 79.9%.

And the viability, T/C [8]?
Its viability, T/C is 78.4%.

And the viability, T/C [9]?
The viability, T/C was 75.4%.

What about the viability, T/C [10] of the same compound?
Its viability, T/C is 69.1%.

What about the viability, T/C [11] of the same compound?
The viability, T/C was 66.3%.

And the viability, T/C [12]?
The viability, T/C was 42%.

And the viability, T/C [13]?
Its viability, T/C is 6.55%.

And the viability, T/C [14]?
Its viability, T/C is 6.86%.

What about the viability, T/C [15] of the same compound?
The viability, T/C was 6.27%.

What about the viability, T/C [16] of the same compound?
Its viability, T/C is 5.01%.

And the viability, T/C [17]?
The viability, T/C was 6.46%.

What about the viability, T/C [18] of the same compound?
Its viability, T/C is 9.02%.

What about the viability, T/C [19] of the same compound?
The viability, T/C was 0.46%.

And the viability, T/C [20]?
The viability, T/C was 2.1%.

And the viability, T/C [21]?
The viability, T/C was 1.64%.

And the viability, T/C [22]?
Its viability, T/C is 0.36%.

And the viability, T/C [23]?
The viability, T/C was 0.6%.

What about the viability, T/C [24] of the same compound?
The viability, T/C was 2.57%.

What about the viability, T/C [25] of the same compound?
Its viability, T/C is 0.56%.

And the viability, T/C [26]?
The viability, T/C was 1.19%.

And the viability, T/C [27]?
The viability, T/C was 0.48%.

And the viability, T/C [28]?
Its viability, T/C is 0.35%.

And the viability, T/C [29]?
Its viability, T/C is 3.56%.

What about the viability, T/C [30] of the same compound?
The viability, T/C was 1.06%.

And the viability, T/C [31]?
Its viability, T/C is 1.5%.

And the viability, T/C [32]?
The viability, T/C was 0.48%.

And the viability, T/C [33]?
Its viability, T/C is 0.41%.

What about the viability, T/C [34] of the same compound?
Its viability, T/C is 0.29%.

What about the viability, T/C [35] of the same compound?
Its viability, T/C is 3.22%.

What about the viability, T/C [36] of the same compound?
Its viability, T/C is 0.75%.
